Some test systems named below: Listeria ivanovii; Escherichia coli ML-35p; Saccharomyces cerevisiae; Escherichia coli IS37#; Escherichia coli IS117#; Shigella dysenteriae; Escherichia coli IS218#.
Experiment in all cases: ≥ marks a high value that may be exact or a test limit, other limits are often not marked, values filed in µg/mL are converted to µM
Assay [1] concerns Staphylococcus aureus ATCC 43300.
Assay [2] concerns Legionella pneumophila ATCC 33155.
Assay [3] has as its system Streptococcus pyogenes ATCC 19615.
Assay [4] relates to Staphylococcus aureus ATCC BAA-44.
Assay [5] deals with Legionella longbeachae ATCC 33484.
The test system of assay [6] is Legionella pneumophila Paris.
Assay [7] has as its system Leishmania infantum (promastigote).
Assay [8] has as its system Salmonella enterica subsp. enterica serovar Enteritidis.
The test system of assay [9] is Staphylococcus aureus ATCC 25923.
The subject of assay [10] is Klebsiella pneumoniae ATCC 13883.
For assay [11], the system named is Acinetobacter baumannii ATCC 19606.
Assay [12] deals with Enterococcus faecalis ATCC 29212.
For assay [13], the system named is Candida parapsilosis ATCC 22019.
The test system of assay [14] is Staphylococcus aureus ST1065.
Assay [15] concerns Pseudomonas aeruginosa ATCC 27853.
Assay [16] deals with Escherichia coli ATCC 25922.
Assay [17] relates to Legionella feeleii ATCC 35072.
Assay [18] deals with Candida albicans ATCC 90028.
Assay [19] has as its system Staphylococcus aureus 68 HER 1049.
The subject of assay [20] is Escherichia coli K12 MG1655.
Assay [21] relates to Enterobacter cloacae ATCC 13047.
Assay [22] relates to Klebsiella pneumoniae IS59#.
The subject of assay [23] is Klebsiella pneumoniae ATCC 700603.
For assay [24], the system named is Candida albicans ATCC 2002.
The test system of assay [25] is Pseudomonas aeruginosa CMCCB 1010.
Assay [26] relates to Pseudomonas aeruginosa DM23155.
The subject of assay [27] is Klebsiella pneumoniae DM4299.
Assay [28] deals with Listeria monocytogenes ATCC 19111.
The subject of assay [29] is Escherichia coli MTCC 0723.
In assay [30] the test system is Staphylococcus aureus ATCC 29213.
Assay [31] has as its system Acinetobacter johnsonii NCDC 0072.
The subject of assay [32] is Bacillus cereus NCDC 0240.
Assay [33] concerns Staphylococcus aureus NCDC 0111.
The subject of assay [34] is Pseudomonas aeruginosa NCDC 0105.
Assay [35] has as its system Salmonella enterica subsp. enterica serovar Typhimurium ATCC 14028.
In assay [36] the test system is Pseudomonas aeruginosa IS350#.
The subject of assay [37] is Staphylococcus aureus IS10#.

Values after ≈ are worked out from the molar mass of the structure shown.

Regarding `CC[C@H](C)[C@H](NC(=O)CNC(=O)[C@H](CCCCN)NC(=O)[C@H](CC(C)C)NC(=O)[C@@H](N)Cc1ccccc1)C(=O)N[C@H](C(=O)NCC(=O)N[C@@H](CCSC)C(=O)N[C@@H](CC(C)C)C(=O)NCC(=O)N[C@@H](CCCCN)C(=O)N[C@@H](CC(C)C)C(=O)N[C@@H](Cc1ccccc1)C(N)=O)C(C)C` [FLKGIVGMLGKLF], the MIC (commonly the lowest concentration that inhibits growth of the organism) was found to be 3 µM (≈ 4.27 µg/mL) in assay [1]; 3.12 µM (≈ 4.44 µg/mL) in assay [2]; 3 µM (≈ 4.27 µg/mL) against Listeria ivanovii; 1 µM (≈ 1.42 µg/mL) in assay [3]; 3 µM (≈ 4.27 µg/mL) with Escherichia coli ML-35p; 3 µM (≈ 4.27 µg/mL) in [4]. For the same compound, the MIC in assay [5] came to 3.12 µM (≈ 4.44 µg/mL); in assay [6] it was 3.12 µM (≈ 4.44 µg/mL); in assay [7], 10 µM (≈ 14.2 µg/mL); in assay [8], 6 µM (≈ 8.53 µg/mL); in assay [9], 3 µM (≈ 4.27 µg/mL); in assay [10], 3 µM (≈ 4.27 µg/mL). In addition, the minimum inhibitory concentration (MIC) worked out at 3 µM (≈ 4.27 µg/mL) in assay [11]; 6 µM (≈ 8.53 µg/mL) in assay [12]; 25 µM (≈ 35.5 µg/mL) in assay [13]; 3 µM (≈ 4.27 µg/mL) in the assay on Saccharomyces cerevisiae; 3 µM (≈ 4.27 µg/mL) in assay [14]; 6 µM (≈ 8.53 µg/mL) in assay [15]. The MIC was determined as 3 µM (≈ 4.27 µg/mL) in assay [16], 3.12 µM (≈ 4.44 µg/mL) in assay [17] and 6 µM (≈ 8.53 µg/mL) in [18].
As for `CC[C@H](C)[C@H](NC(=O)CNC(=O)[C@H](CC(C)C)NC(=O)[C@H](Cc1ccccc1)NC(=O)[C@H](CC(C)C)NC(=O)[C@H](CCCCN)NC(=O)[C@H](Cc1c[nH]c2ccccc12)NC(=O)[C@@H](N)CCCCN)C(=O)N[C@@H](CC(C)C)C(=O)N[C@@H](C)C(=O)N[C@H](C(=O)N[C@@H](CC(C)C)C(=O)N[C@@H](CCCCN)C(=O)N[C@H](C(=O)N[C@@H](CC(C)C)C(=O)O)C(C)C)C(C)C` [KWKLFLGILAVLKVL], the MIC in [19] and in assay [20] was 18.4 µM (≈ 32 µg/mL) each time.
In the case of `C[C@@H](O)[C@@H]1NC(=O)CNC(=O)[C@H](CCCCN)NC(=O)[C@H](Cc2ccccc2)NC(=O)[C@@H](NC(=O)[C@H](Cc2ccccc2)NC(=O)[C@@H](N)CCCN=C(N)N)CSSC[C@@H](C(=O)NCC(=O)O)NC(=O)[C@@H]2CCCN2C1=O` [RFCFKGTPCG], the minimum inhibitory concentration (MIC) is 8.97 µM (≈ 9.98 µg/mL) in assay [21]; at least 44.8 µM in assay [22]; at least 44.8 µM against Escherichia coli IS37#; at least 44.8 µM against Escherichia coli IS117#; 17.9 µM (≈ 20 µg/mL) in the assay on Shigella dysenteriae; 17.9 µM (≈ 20 µg/mL) in assay [23]. The minimum inhibitory concentration (MIC) was 4.48 µM (≈ 4.99 µg/mL) in assay [9]; 17.9 µM (≈ 20 µg/mL) in [12]; 17.9 µM (≈ 20 µg/mL) in [13]; 8.97 µM (≈ 9.98 µg/mL) in [16]; 17.9 µM (≈ 20 µg/mL) in assay [18]; 17.9 µM (≈ 20 µg/mL) in [24]. Moreover, the minimal inhibitory concentration (MIC) in assay [25] was at least 44.8 µM.
With `CC(=O)N[C@@H](CCCN=C(N)N)C(=O)NCC(=O)N[C@@H](CCCN=C(N)N)C(=O)N[C@@H](CCCCN)C(=O)N[C@H](C(=O)N[C@H](C(=O)N[C@@H](CCCN=C(N)N)C(=O)N[C@@H](CCCN=C(N)N)C(=O)N[C@@H](CCCCN)C(=O)N[C@@H](CCCCN)C(=O)O)C(C)C)C(C)C` [RGRKVVRRKK], the MIC in assay [26], in assay [27] and in assay [16] was 6 µM (≈ 7.95 µg/mL) in each case.
Turning to `CC[C@H](C)[C@H](NC(=O)[C@@H](N)CCCN=C(N)N)C(=O)N[C@@H](CCCN=C(N)N)C(=O)N[C@@H](Cc1ccccc1)C(=O)N1CCC[C@H]1C(=O)N[C@@H](Cc1c[nH]c2ccccc12)C(=O)N1CCC[C@H]1C(=O)N[C@@H](Cc1c[nH]c2ccccc12)C(=O)N[C@@H](CCCN=C(N)N)C(=O)N[C@@H](Cc1c[nH]c2ccccc12)C(=O)N1CCC[C@H]1C(=O)N[C@@H](Cc1c[nH]c2ccccc12)C(=O)N[C@@H](Cc1c[nH]c2ccccc12)C(=O)N1CCC[C@H]1C(=O)N[C@@H](CCCN=C(N)N)C(=O)N[C@@H](Cc1ccccc1)C(=O)N[C@@H](CCCN=C(N)N)C(=O)NCC(=O)O` [RIRFPWPWRWPWWPRFRG], the minimum inhibitory concentration (MIC) in assay [28] was 6 µM (≈ 15.5 µg/mL); in [29], 6 µM (≈ 15.5 µg/mL); in assay [30] it was 6 µM (≈ 15.5 µg/mL); in assay [31] it was at least 50 µM; in [32], 1.5 µM (≈ 3.87 µg/mL); in [33] it was 12.5 µM (≈ 32.3 µg/mL). In addition, the minimal inhibitory concentration (MIC) in [15] was 25 µM (≈ 64.6 µg/mL); in assay [34], at least 50 µM; in assay [35], 50 µM (≈ 129 µg/mL).
Take `CC[C@H](C)[C@H](NC(=O)[C@@H](N)C(C)C)C(=O)N1CCC[C@H]1C(=O)N[C@@H](Cc1ccccc1)C(=O)N[C@H](C(=O)N[C@@H](C)C(=O)N[C@@H](CO)C(=O)N[C@H](C(=O)N[C@@H](C)C(=O)N[C@@H](C)C(=O)N[C@@H](CCC(=O)O)C(=O)N[C@@H](CCSC)C(=O)N[C@@H](CCSC)C(=O)N[C@@H](CCC(N)=O)C(=O)N[C@@H](Cc1cnc[nH]1)C(=O)N[C@H](C(=O)N[C@@H](Cc1ccc(O)cc1)C(=O)N[C@H]1CSSC[C@@H](C(=O)O)NC(=O)[C@H](CCCN=C(N)N)NC(=O)[C@H](CCCCN)NC(=O)[C@H](CO)NC(=O)[C@H](C)NC(=O)[C@H](C)NC1=O)C(C)C)C(C)C)C(C)C` [VIPFVASVAAEMMQHVYCAASKRC]: the MIC in [36] was found to be 19.1 µM (≈ 50 µg/mL); in [21], 3.83 µM (≈ 9.99 µg/mL); with Escherichia coli IS37#, 19.1 µM (≈ 50 µg/mL); in the assay on Escherichia coli IS117#, 7.66 µM (≈ 20 µg/mL); with Shigella dysenteriae, 3.83 µM (≈ 9.99 µg/mL); in assay [37] it was 19.1 µM (≈ 50 µg/mL). The MIC was 19.1 µM (≈ 50 µg/mL) in the assay with Escherichia coli IS218#; 3.83 µM (≈ 9.99 µg/mL) in assay [23]; 3.83 µM (≈ 9.99 µg/mL) in assay [9]; 1.91 µM (≈ 5 µg/mL) in assay [12]; 7.66 µM (≈ 20 µg/mL) in assay [13]; 7.66 µM (≈ 20 µg/mL) in [15]. In addition, the MIC in assay [16] is 1.91 µM (≈ 5 µg/mL); in assay [18], 3.83 µM (≈ 9.99 µg/mL); in assay [24], 1.91 µM (≈ 5 µg/mL); in [25], 3.83 µM (≈ 9.99 µg/mL).

Source of the values: DBAASP.
